Tests used:
[1] = test system: bleomycin (BLM)-induced model of pulmonary fibrosis; test: Interstitial fibrosis, bleomycin-induced pulmonary fibrosis model; type: in vivo; conditions: BLM-injured mice, treatment days 22-28
Description: (§1) The following is relevant to Example 10. A bleomycin (BLM)-induced model of pulmonary fibrosis was established in mice (n=49). Mice were intranasally (IN) administered with 20 μg of bleomycin sulphate (Hospira, Melbourne, Victoria, Australia) in 50 μl of saline (equivalent to 400 μg/ml; 25 μl per nare) on days 0 and 7. For control mice (n=7), however, instead of BLM, they were given IN administration (50 μL per mouse) of 0.9% w/v saline on days 0 and 7. All mice were then left untreated for a further two weeks (until day 21).
(§2) On day 22 (1 day following completion of induction of the BLM-induced pulmonary fibrosis model), mice were lightly anaesthetized with isoflurane (Baxter Health Care, NSW, Australia) and held in a semi-supine position while IN administration of the appropriate treatment took place. The following treatments were administered daily or once-weekly to mice, from days 22-28.
(§3) BLM alone (injury control group): a-sub-group of mice (n=7) received 50 μL of phosphate buffered saline (PBS; the vehicle for Pirfenidone, AECs and AEC-derived exosomes; 25 μL per nare) daily, using an automatic pipette from days 22-28,
(§4) Pirfenidone: a separate sub-group of mice (n=7) received 1 mg of Pirfenidone (Tocris Bioscience, Noble Park, Victoria, Australia) per day (equivalent to 50 mg/kg/day) by twice daily oral gavage, from days 22-28. […]

[2] = test system: bleomycin (BLM)-induced model of pulmonary fibrosis; test: Subepithelial ECM/collagen deposition, bleomycin-induced pulmonary fibrosis model; type: in vivo; conditions: BLM-injured mice, treatment days 22-28
Description: as §1, §2, §3, §4

[3] = test system: bleomycin (BLM)-induced model of pulmonary fibrosis; test: Lung inflammation score, bleomycin-induced pulmonary fibrosis model; type: in vivo; conditions: BLM-injured mice, treatment days 22-28
Description: as §1, §2, §3, §4

[4] = test system: chronic model of ovalbumin (OVA)-induced AAD; test: Hydroxyproline assay of total lung collagen concentration, chronic OVA-induced AAD model; type: in vivo, Balb/c mice; conditions: collagen content/dry weight, OVA alone 3.82±0.10, saline 2.84±0.11
Description: (§5) To assess the individual vs combined effects of MSCs, AECs and RLX (serelaxin) in chronic AAD, a chronic model of ovalbumin (OVA)-induced AAD was established in mice (n=36). Mice were sensitized with two i.p. injections of 10 μg of Grade V chicken egg OVA (Sigma-Aldrich, Mo., USA) and 400 μg of aluminium potassium sulphate adjuvant (alum; AJAX Chemicals, NSW, Australia) in 500 μl of 0.9% w/v normal saline solution (Baxter Health Care, NSW, Australia) on day 0 and day 14. They were then challenged by whole body inhalation exposure (nebulization) to aerosolized OVA (2.5% w/v in 0.9% w/v normal saline) for thirty minutes, three times a week, between days 21 and 63, using an ultrasonic nebulizer (Omron NE-U07; Omron, Kyoto, Japan). Control mice (n=6) were given i.p injections of 500 μl 0.9% w/v saline and nebulized with 0.9% w/v saline instead of OVA. […]
The second largest lung lobe from each mouse was processed as previously described (Royce et al. (2009) supra; Royce et al. (2014) supra; Royce et al. (2015) supra) for the measurement of hydroxyproline content, which was determined from a standard curve of purified trans-4-hydroxy-L-proline (Sigma-Aldrich). […]

[5] = test system: α-SMA-stained myofibroblasts; test: Subepithelial myofibroblast accumulation (α-SMA IHC), chronic OVA-induced AAD model; type: in vivo, Balb/c mice; conditions: OVA-treated mice; OVA alone 1.72±0.07, saline 0.44±0.13
Description: (§6) To assess the individual vs combined effects of MSCs, AECs and RLX (serelaxin) in chronic AAD, a chronic model of ovalbumin (OVA)-induced AAD was established in mice (n=36). Mice were sensitized with two i.p. injections of 10 μg of Grade V chicken egg OVA (Sigma-Aldrich, Mo., USA) and 400 μg of aluminium potassium sulphate adjuvant (alum; AJAX Chemicals, NSW, Australia) in 500 μl of 0.9% w/v normal saline solution (Baxter Health Care, NSW, Australia) on day 0 and day 14. […]
(§7) IHC was used to detect TGF-β1 (using a polyclonal antibody; sc-146; Santa Cruz Biotechnology, Santa Cruz, Calif., USA; 1:1000 dilution), α-smooth muscle actin (α-SMA; a marker of myofibroblast differentiation; using a monoclonal antibody; M0851; DAKO Antibodies, Glostrup, Denmark; 1:200 dilution) and thymic stromal lymphopoietin (TSLP; a marker for epithelial damage; using a polyclonal antibody; ABT330; EMD Millipore Corp'. Temecula, Calif., USA; 1:1000 dilution). Primary antibody staining was detected using the DAKO EnVision anti-rabbit or anti-mouse kits and 3,3′-Diaminobenzidine (DAB) chromogen, while negative controls, which were exposed to the EnVision kits in the absence of any primary antibody, were also included. […]

[6] = test system: chronic model of ovalbumin (OVA)-induced AAD; test: AHR by invasive plethysmography (methacholine), chronic OVA-induced AAD model; type: in vivo, Balb/c mice; conditions: airway resistance to nebulized methacholine; vs OVA group
Description: as §5
On day 78 (24 hours after the final intranasal administration of PBS or various treatments detailed), mice were anesthetized with an i.p injection of ketamine 10 mg/kg and xylazine 2 mg/kg BW (in 0.9% w/v saline). […] The airway resistance of each mouse was then measured (reflecting changes in AHR) in response to increasing doses of nebulized acetyl-β-methylcholine chloride (methacholine; Sigma Aldrich, Mo., USA), delivered intratracheally, from 3.125-50 mg/ml over 5 doses, to elicit bronchoconstriction. […]

[7] = test system: chronic model of ovalbumin (OVA)-induced AAD; test: Peri-bronchial inflammation score, chronic OVA-induced AAD model; type: in vivo, Balb/c mice; conditions: scale 0 to 4; OVA-treated mice, intranasal treatment days 64-77; OVA alone 1.70±0.60, saline 0.15±0.40
Description: Six-to-eight week-old female Balb/c mice were obtained from Monash Animal Services (Monash University, Clayton, Victoria, Australia) and housed under a controlled environment, on a 12 hour light/12 hour dark lighting cycle with free access to water and lab chow (Barastock Stockfeeds, Pakenham, Victoria, Australia). All mice were provided an acclimatization period of 4-5 days before any experimentation.
as §5

TGF-β1 = test: Airway epithelial TGF-β1 immunohistochemistry, chronic OVA-induced AAD model; type: in vivo, Balb/c mice; conditions: relative to saline-treated controls expressed as 1; OVA alone 10.65±0.81
Description: as §6, §7

[8] = test system: thymic stromal lymphopoietin (TSLP); test: TSLP immunohistochemistry (epithelial damage), chronic OVA-induced AAD model; type: in vivo, Balb/c mice; conditions: OVA-treated mice; OVA alone 4.61±0.53, saline 1.00±0.30
Description: as §6, §7

[9] = test system: chronic model of ovalbumin (OVA)-induced AAD; test: Subepithelial collagen deposition (Masson's trichrome), chronic OVA-induced AAD model; type: in vivo, Balb/c mice; conditions: OVA-treated mice; OVA alone 26.26±1.37, saline 8.07±0.58
Description: (§8) To assess the individual vs combined effects of MSCs, AECs and RLX (serelaxin) in chronic AAD, a chronic model of ovalbumin (OVA)-induced AAD was established in mice (n=36). Mice were sensitized with two i.p. injections of 10 μg of Grade V chicken egg OVA (Sigma-Aldrich, Mo., USA) and 400 μg of aluminium potassium sulphate adjuvant (alum; AJAX Chemicals, NSW, Australia) in 500 μl of 0.9% w/v normal saline solution (Baxter Health Care, NSW, Australia) on day 0 and day 14. They were then challenged by whole body inhalation exposure (nebulization) to aerosolized OVA (2.5% w/v in 0.9% w/v normal saline) for thirty minutes, three times a week, between days 21 and 63, using an ultrasonic nebulizer (Omron NE-U07; Omron, Kyoto, Japan). Control mice (n=6) were given i.p injections of 500 μl 0.9% w/v saline and nebulized with 0.9% w/v saline instead of OVA.
(§9) On day 64 (1 day following completion of induction of the chronic AAD model), mice were lightly anaesthetized with isoflurane (Baxter Health Care, NSW, Australia) and held in a semisupine position while intranasal administration of the appropriate treatment took place. […]

[10] = test system: chronic model of ovalbumin (OVA)-induced AAD; test: Epithelial thickness (Masson's trichrome), chronic OVA-induced AAD model; type: in vivo, Balb/c mice; conditions: relative to BM length; OVA-treated mice; OVA alone 21.20±0.60, saline 16.89±0.76
Description: as §8, §9

goblet cells = test: Goblet cell metaplasia (ABPAS staining), chronic OVA-induced AAD model; type: in vivo, Balb/c mice; conditions: OVA-treated mice; OVA alone 4.83±0.20, saline 1.62±0.32
Description: as §8, §9

Molecule	bleomycin-induced increase in interstitial fibrosis [1]	bleomycin-induced increase in subepithelial ECM/collagen deposition [2]	bleomycin-induced lung inflammation (inflammation score) [3]	total lung collagen concentration [4]	number of α-SMA-stained myofibroblasts in the subepithelial layer [5]	decrease of AHR [6]	peri-bronchial inflammation score [7]	epithelial TGF-β1 expression (TGF-β1)	number of TSLP-positive cells within the airway epithelium [8]	subepithelial collagen (relative to basement membrane length) [9]	epithelial thickness [10]	goblet cell count (goblet cells)
Cc1ccc(=O)n(-c2ccccc2)c1 [pirfenidone, Pirfenidone]	normalized	no effect	only partially reduce	–	–	–	–	–	–	–	–	–
Serelaxin [RLX]	–	–	–	3.08±0.23%	1.08±0.10 per 100 μm BM length	~50%	1.55±0.83	5.85±1.42	3.14±0.34 per 100 μm of BM length	18.27±2.26 μm	18.19±0.74 μm^2	5.08±0.25 goblet cells/100 μm BM length
